The results in this text go back to US9079888B2, “Compounds as histamine H3 receptor ligands” (Suven Life Sciences Limited, priority 2011, dated 2015).

Series [1] concerns the target Human or Rat Histamine H3 Receptor. The experiment in a line: Binding assay for human or rat Histamine H3 receptor ([3H] R-α-methylhistamine displacement). Conditions: radioligand [3H] R-α-methylhistamine 3.0 nM; receptor source rat brain frontal cortex or recombinant human cDNA in CHO cells (table does not say which). On the procedure: The reaction was terminated by rapid vacuum filtration onto the glass fiber filters. Radioactivity trapped onto the filters was determined and compared to the control values in order to ascertain any interactions of the test compound(s) with either cloned human or rat receptor binding site.

The nature of series [2]: Rodent Pharmacokinetic Study.
Method: Male Wistar rats (230-280 grams) obtained from NIN (National Institute of Nutrition, Hyderabad, India) were used as an experimental animal. Three animals were housed in each cage. Animals were kept fasted over night and maintained on a 12 hours light/dark cycle. Three rats were dosed New chemical entity (NCE) orally (3 or 10 mg/kg) and intravenously (1 or 5 mg/kg) on day 0 and day 2.
At each time point blood was collected by jugular vein. Blood was stored at 2-8° C. until analysis. The concentrations of the NCE compound in blood were determined using LC-MS/MS method. Schedule time points: Pre dose 0.08, 0.25, 0.5, 1, 2, 4, 6, 8 and 24 hours after dosing (n=3). The NCE compounds were quantified in blood by partially validated LC-MS/MS method using acetonitrile precipitation technique. […] Study samples were analyzed using calibration samples in the batch and quality control samples spread across the batch.
Pharmacokinetic parameters were calculated by non-compartmental model using software WinNonlin version 5.0.1.
Series [3] deals with rats. The experiment in a line: Inhibition of Food Intake. It counts as in vivo. The following applies: rats fasted 18 hours, oral treatment 60 minutes before feed, active dose. On the procedure:
The anti-obesity properties of compounds of this invention were estimated using this model.
The experiment consisted of 6 days. The rats were adapted to the 18 hours fasting and 6 hours feeding pattern. The animals were housed in a group of three in the cages provided with the fasting grills and was fasted for 18 hours. After 18 hours fasting the rats were separated and placed individually in the cage. Weighed amount of feed was provided to rats for 6 hours and the feed intake at 1 hour, 2 hours, 4 hours and 6 hours was measured.
Again the rats were regrouped and fasted for 18 hours. The above procedure was followed for 5 days. The average cumulative food intake by the rats on the last 3 days was calculated. Animals were randomized on the basis of their previous three days food intake. On the day of experiment the rats were orally treated test compounds or vehicle. After 60 minutes, the feed was provided to the rats and the food intake at 1 hour, 2 hours, 4 hours and 6 hours was measured. The food intake by the rats treated with test compound was compared with the vehicle treated group by using Unpaired Student's t test.

For series [4], the system named is Male Wister rats. Put plainly: Object Recognition Task Model. It is filed as in vivo. The following applies: rat, 1 mg/kg p.o. How it is done: The cognition enhancing properties of compounds of this invention were estimated by using this model.
Male Wister rats (230-280 grams) obtained from N. I. N. (National Institute of Nutrition, Hyderabad, India) was used as experimental animals. Four animals were housed in each cage. Animals were kept on 20% food deprivation before one day and given water ad libitum throughout the experiment and maintained on a 12 hours light/dark cycle. Also the rats were habituated to individual arenas for 1 hour in the absence of any objects.
One group of 12 rats received vehicle (1 mL/Kg) orally and another set of animals received compound of the formula (I) either orally or i.p., before one hour of the familiar (T1) and choice trial (T2).
The experiment was carried out in a 50×50×50 cm open field made up of acrylic. In the familiarization phase, (T1), the rats were placed individually in the open field for 3 minutes, in which two identical objects (plastic bottles, 12.5 cm height×5.5 cm diameter) covered in yellow masking tape alone (a1 and a2) were positioned in two adjacent corners, 10 cms from the walls. After 24 hours of the (T1) trial for long-term memory test, the same rats were placed in the same arena as they were placed in T1 trial. Choice phase (T2) rats were allowed to explore the open field for 3 minutes in presence of one familiar object (a3) and one novel object (b) (Amber color glass bottle, 12 cm high and 5 cm in diameter). Familiar objects presented similar textures, colors and sizes. During the T1 and T2 trial, explorations of each object (defined as sniffing, licking, chewing or having moving vibrissae whilst directing the nose towards the object at a distance of less than 1 cm) were recorded separately by stopwatch. Sitting on an object was not regarded as exploratory activity, however, it was rarely observed.
T1 is the total time spent exploring the familiar objects (a1+a2).
T2 is the total time spent exploring the familiar object and novel object (a3+b).
The object recognition test was performed as described by Ennaceur, A., Delacour, J., 1988, A new one-trial test for neurobiological studies of memory in rats—Behavioural data, Behay. Brain Res., 31, 47-59.

Setting [5] is: male, Wistar, rat, whole blood, po, 10 mg/kg.
Setting [6] is: male, Wistar, rat, whole blood, iv, 1 mg/kg.
The mark [7] stands for this setting: male, Wistar, rat, whole blood, po, 3 mg/kg.
[8] abbreviates: Wistar/Male rat, Intravenous, 1 mg/kg, vehicle water, blood.
Where [9] appears, read: Wistar/Male rat, Per Oral, 3 mg/kg, vehicle water, blood.
Where [10] appears, read: Wistar/Male rat, per oral 3 mg/kg vs intravenous 1 mg/kg.

Structures can show the parent of a compound that is named as a salt.

As to `O=C(CNc1ccc(OC2CCN(C3CCC3)CC2)cc1)N1CCOCC1` [Example 2, 2-[4-(1-Cyclobutylpiperidin-4-yloxy)phenylamino]-1-(morpholin-4-yl)ethanone hydrochloride], the Ki in series [1] is 6.4 nM.

For the compound `O=C(CN1CCCCC1)Nc1ccc(OC2CCN(C3CCC3)CC2)cc1C(F)(F)F` [Example 7, N-[4-(1-Cyclobutylpiperidin-4-yloxy)-2-trifluoromethylphenyl]-2-(piperidin-1-yl) acetamide], the Ki in series [1] is 14.8 nM.

For `Cc1cc(OC2CCN(C(C)C)CC2)ccc1NC(=O)CN1CCCC1` [Example 10, N-[4-(1-Isopropyl-piperidin-4-yloxy)-2-methylphenyl]-2-(pyrrolidin-1-yl) acetamide], the Ki in series [1] was 8.4 nM.

In the case of `Cc1cc(OC2CCN(C3CCC3)CC2)ccc1NC(=O)CN1CCCC1` [Example 11, N-[4-(1-Cyclobutylpiperidin-4-yloxy)-2-methylphenyl]-2-(pyrrolidin-1-yl) acetamide], in series [2] (male, Wistar, rat, whole blood, iv, 5 mg/kg), the AUC(0-t) turned out to be 3340 ± 656 ng·h/mL. Moreover, in series [2] (setting [5]), the area under the curve AUC(0-t) came out at 1350 ± 569 ng·h/mL, the Cmax came to 122 ± 55 ng/mL, the Tmax came to 4 ± 1.76 h and the bioavailability was determined as 20 ± 9%. The inhibitory constant (Ki) in series [1] came to 1.9 nM.

Turning to `Cc1cc(OC2CCN(C3CCCC3)CC2)ccc1NC(=O)CN1CCCCC1` [Example 12, N-[4-(1-Cyclopentylpiperidin-4-yloxy)-2-methylphenyl]-2-(piperidin-1-yl) acetamide], the inhibition constant (Ki) in series [1] came out at 7.5 nM.

With `Cc1cc(OC2CCN(C3CCC3)CC2)ccc1NC(=O)CN1CCCCC1` [Example 13, N-[4-(1-Cyclobutylpiperidin-4-yloxy)-2-methylphenyl]-2-(piperidin-1-yl) acetamide], the inhibition constant Ki in series [1] was found to be 3.3 nM. Further, the “Inhibition of food intake” value in series [3] is recorded as 30 mg/kg, p.o.

On to `CN(C(=O)CN1CCOCC1)c1ccc(OC2CCN(C3CCC3)CC2)cc1` [Example 14, N-[4-(1-Cyclobutylpiperidin-4-yloxy)phenyl]-N-methyl-2-(morpholin-4-yl) acetamide], for which the inhibition constant (Ki) in series [1] is 4.9 nM.

Regarding `Cc1cc(OC2CCN(C3CCCC3)CC2)ccc1NC(=O)CN1CCC[C@H]1C` [Example 15, N-[4-(1-Cyclopentylpiperidin-4-yloxy)-2-methylphenyl]-2-(R-2-methylpyrrolidin-1-yl) acetamide], the Ki in series [1] was 4 nM.

For the compound `Cc1cc(OC2CCN(C3CCC3)CC2)ccc1NC(=O)CN1CCC[C@H]1C` [Example 16, N-[4-(1-Cyclobutylpiperidin-4-yloxy)-2-methylphenyl]-2-(R-2-methylpyrrolidin-1-yl) acetamide], the Ki in series [1] was 2.4 nM. The “Inhibition of food intake” value in series [3] was “≧30 mg/kg, p.o”.

In series [2] (setting [6]), `O=C(CN1CCC(O)CC1)Nc1ccc(OC2CCN(C3CCC3)CC2)cc1` [Example 19, N-[4-(1-Cyclobutylpiperidin-4-yloxy)phenyl]-2-(4-hydroxypiperidin-1-yl) acetamide] had an AUC(0-t) of 347 ± 44 ng·h/mL and a half-life of 17 ± 4.5 h. Moreover, in series [2] (setting [7]), the exposure AUC(0-t) turned out to be 838 ± 96 ng·h/mL, the Cmax worked out at 67 ± 11 ng/mL, the time of peak concentration (Tmax) was 2.67 ± 1.15 h and the bioavailability was determined as 81 ± 12%. The same compound gave a half-life in series [2] (setting [7]) of 12.8 ± 2.48 h. Further, the inhibition constant Ki in series [1] was found to be 6.4 nM.

Take `O=C(CN1CCCC1)Nc1ccc(OC2CCN(C3CCC3)CC2)cc1` [Example 21, N-[4-(1-Cyclobutylpiperidin-4-yloxy)-phenyl]-2-(pyrrolidin-1-yl) acetamide]: the Ki in series [1] amounted to 1.1 nM. Also, in series [3], the “Inhibition of food intake” value is recorded as “≧30 mg/kg, p.o”.

Turning to `CC(C)N1CCC(Oc2ccc(NC(=O)CN3CCOCC3)cc2)CC1` [Example 22, N-[4-(1-Isopropylpiperidin-4-yloxy)-phenyl]-2-(morpholin-4-yl) acetamide], in series [2] (setting [8]), the AUCt was 340 ± 60 ng·h/mL. For the same compound, in series [2] (setting [9]), the AUCt came to 850 ± 61 ng·h/mL and the Tmax amounted to 0.42 ± 0.14 h. The same compound had a bioavailability in series [2] (setting [10]) of 85 ± 12%. For the same compound, the concentration in series [2] (setting [7]) peaked (Cmax) at 376 ± 27 ng/mL. For the same compound, the Inference result in series [4] is reported as “Active”. Moreover, in series [4] (choice trial T2 24 h after T1), the “Exploration time mean ± S.E.M, Familiar object” value came to 7.12 ± 1.51 s and the “Exploration time mean ± S.E.M, Novel object” value came to 16.50 ± 2.37 s. Also, in series [1], the Ki was found to be 8.3 nM. Also, the “Inhibition of food intake” value in series [3] was 60 mg/kg, p.o.

In series [2] (setting [8]), `O=C(CN1CCOCC1)Nc1ccc(OC2CCN(C3CC3)CC2)cc1` [Example 23, N-[4-(1-Cyclopropylpiperidin-4-yloxy)phenyl]-2-(morpholin-4-yl) acetamide] showed an AUCt of 338 ± 29 ng·h/mL and a T1/2 of 1.13 ± 0.02 h. Besides, in series [2] (setting [9]), the AUCt is 556 ± 111 ng·h/mL, the highest concentration (Cmax) is 389 ± 29 ng/mL, the T1/2 came out at 1.23 ± 0.53 h and the Tmax was 0.50 ± 0.00 h. Also, the bioavailability in series [2] (setting [10]) was 55 ± 10%.

For `CC(C)N1CCCN(CC(=O)Nc2ccc(OC3CCN(C4CCC4)CC3)cc2)CC1` [Example 24, N-[4-(1-Cyclobutylpiperidin-4-yloxy)phenyl]-2-(4-isopropyl[1,4]diazepan-1-yl) acetamide], in series [1], the Ki stood at 1 nM.

As for `O=C(CN1CCOC(CO)C1)Nc1ccc(OC2CCN(C3CCC3)CC2)cc1` (stereo not drawn) [Example 25, N-[4-(1-Cyclobutylpiperidin-4-yloxy)phenyl]-2-(2-hydroxymethylmorpholin-4-yl) acetamide], the inhibition constant (Ki) in series [1] was determined as 4.05 nM.

Consider `O=C(CCN1CCOCC1)Nc1ccc(OC2CCN(C3CCC3)CC2)cc1` [Example 26, N-[4-(1-Cyclobutylpiperidin-4-yloxy)phenyl]-3-(morpholin-4-yl) propionamide], for which, in series [1], the Ki amounted to 6.7 nM.

In the case of `O=C(CN1CCCCC1)Nc1ccc(OC2CCN(C3CCCC3)CC2)cc1` [Example 27, N-[4-(1-Cyclopentylpiperidin-4-yloxy)phenyl]-2-(piperidin-1-yl) acetamide dihydrochloride], the inhibition constant Ki in series [1] turned out to be 4.1 nM.

For `O=C(CN1CCCC1)Nc1ccc(OC2CCN(C3CCCC3)CC2)cc1` [Example 28, N-[4-(1-Cyclopentylpiperidin-4-yloxy)phenyl]-2-(pyrrolidin-1-yl) acetamide dihydrochloride], the Ki in series [1] was 3.8 nM.

As to `O=C(CN1CCCCC1)Nc1ccc(OC2CCN(C3CCC3)CC2)cc1` [Example 29, N-[4-(1-Cyclobutylpiperidin-4-yloxy)phenyl]-2-(piperidin-1-yl) acetamide], in series [1], the inhibitory constant (Ki) was 1.6 nM.

`CC(=O)N(CCN1CCOCC1)c1ccc(OC2CCN(C3CC3)CC2)cc1` [Example 38, N-[4-(1-Cyclopropylpiperidin-4-yloxy)phenyl]-N-[2-(morpholin-4-yl)ethyl] acetamide L(+) tartarate]: the inhibitory constant (Ki) in series [1] amounted to 6.6 nM.

`CC(=O)N1CCN(CC(=O)Nc2ccc(OC3CCN(C4CCC4)CC3)cc2)CC1` [Example 39, N-[4-(1-Cyclobutylpiperidin-4-yloxy)phenyl]-2-(1-acetylpiperazin-4-yl) acetamide]: the Ki in series [1] is 5.39 nM.
